# Test results published in patent publication US8859584B2, “TRPV1 antagonists” (AbbVie Inc., priority 2011, dated 2014).
# Legend:
# human TRPV1 [1] = molecular target: T1, human TRPV1 (Homo sapiens, UniProt Q8NER1); experiment: Acid Activation Assay (pH 5.0, FLIPR intracellular Ca2+, recombinant HEK293 cells); format: cell-based; conditions: percentage of maximal pH 5.0-induced response remaining; HEK293 hTRPV1; max concentration 37.5 μM
# T1 construct: expressed in transfected cells
# In short: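 HEK293 cells stably expressing recombinant hTRPV1 were loaded with calcium dye for 90-120 min at 25° C and pre-treated with compound for 3 min before a pH 5.0 (DPBS/MES) challenge. Peak FLIPR fluorescence over baseline is given as percentage of the maximal pH 5.0-induced response.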
# human TRPV1 [2] = molecular target: T1, human TRPV1; experiment: Capsaicin Activation Assay (FLIPR intracellular Ca2+, recombinant HEK293 cells); format: cell-based; conditions: recombinant HEK293 cells expressing hTRPV1; 50 nM capsaicin; read-out: human TRPV1 capsaicin IC50
# T1 sequence (Q8NER1 whole entry): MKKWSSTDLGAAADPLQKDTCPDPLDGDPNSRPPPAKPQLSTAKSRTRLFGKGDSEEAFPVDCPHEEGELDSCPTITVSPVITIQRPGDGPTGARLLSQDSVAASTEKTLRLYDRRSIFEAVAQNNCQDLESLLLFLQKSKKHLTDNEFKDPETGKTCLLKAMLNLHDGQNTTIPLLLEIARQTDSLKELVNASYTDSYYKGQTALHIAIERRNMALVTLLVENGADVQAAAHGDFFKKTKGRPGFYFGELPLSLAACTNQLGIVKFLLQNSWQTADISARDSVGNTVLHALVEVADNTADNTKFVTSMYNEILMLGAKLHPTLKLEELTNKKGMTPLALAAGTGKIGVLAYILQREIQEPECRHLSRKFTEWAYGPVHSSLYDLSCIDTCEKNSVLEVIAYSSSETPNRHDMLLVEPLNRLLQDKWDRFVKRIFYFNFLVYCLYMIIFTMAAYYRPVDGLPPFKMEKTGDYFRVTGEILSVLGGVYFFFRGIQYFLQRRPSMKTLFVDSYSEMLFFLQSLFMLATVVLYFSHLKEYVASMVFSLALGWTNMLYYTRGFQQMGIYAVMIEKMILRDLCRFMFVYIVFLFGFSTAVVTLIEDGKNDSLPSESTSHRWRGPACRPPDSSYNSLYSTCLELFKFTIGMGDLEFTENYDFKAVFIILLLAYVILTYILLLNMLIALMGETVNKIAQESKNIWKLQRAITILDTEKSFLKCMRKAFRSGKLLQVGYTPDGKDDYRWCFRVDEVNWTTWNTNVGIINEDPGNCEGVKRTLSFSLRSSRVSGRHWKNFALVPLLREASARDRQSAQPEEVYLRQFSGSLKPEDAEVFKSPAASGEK
SMILES,human TRPV1 H+ (max % remain) (human TRPV1 [1]) [%],IC50 (human TRPV1 [2]) [µM]
"CCC1(CC)C[C@@H](NC(=O)Nc2cccc3c2C[C@H](O)C3)c2cc(F)ccc2O1 [Example 58, 1-[(4R)-2,2-diethyl-6-fluoro-3,4-dihydro-2H-chromen-4-yl]-3-[(2R)-2-hydroxy-2,3-dihydro-1H-inden-4-yl]urea]",67,0.024
"CCCC1(CCC)C[C@@H](NC(=O)Nc2cccc3c2C[C@H](O)C3)c2cccc(F)c2O1 [Example 59, 1-[(4R)-8-fluoro-2,2-dipropyl-3,4-dihydro-2H-chromen-4-yl]-3-[(2R)-2-hydroxy-2,3-dihydro-1H-inden-4-yl]urea]",99,0.023
"CCC1(CC)C[C@@H](NC(=O)Nc2cccc3c2C[C@H](O)C3)c2ccc(OC(F)(F)F)cc2O1 [Example 60, 1-[(4R)-2,2-diethyl-7-(trifluoromethoxy)-3,4-dihydro-2H-chromen-4-yl]-3-[(2R)-2-hydroxy-2,3-dihydro-1H-inden-4-yl]urea]",23,0.052
"CC1(C(F)F)C[C@@H](NC(=O)Nc2cccc3c2C[C@H](O)C3)c2cc(Cl)ccc2O1 (stereo partly drawn) [Example 61, 1-[(4R)-6-chloro-2-(difluoromethyl)-2-methyl-3,4-dihydro-2H-chromen-4-yl]-3-[(2R)-2-hydroxy-2,3-dihydro-1H-inden-4-yl]urea]",69,0.02
"Cc1c(F)ccc2c1OC(C)(C)C[C@H]2NC(=O)Nc1cccc2c1C[C@H](O)C2 [Example 62, 1-[(4R)-7-fluoro-2,2,8-trimethyl-3,4-dihydro-2H-chromen-4-yl]-3-[(2R)-2-hydroxy-2,3-dihydro-1H-inden-4-yl]urea]",86,0.02
"CC1(C)C[C@@H](NC(=O)Nc2cccc3c2C[C@H](O)C3)c2ccccc21 [Example 63, 1-[(1R)-3,3-dimethyl-2,3-dihydro-1H-inden-1-yl]-3-[(2R)-2-hydroxy-2,3-dihydro-1H-inden-4-yl]urea]",86,0.14
"O=C(Nc1cccc2c1C[C@H](O)C2)N[C@@H]1CCOc2c(F)cc(F)cc21 [Example 64, 1-[(4R)-6,8-difluoro-3,4-dihydro-2H-chromen-4-yl]-3-[(2R)-2-hydroxy-2,3-dihydro-1H-inden-4-yl]urea]",90,4.8
"O=C(Nc1cccc2c1C[C@H](O)C2)N[C@@H]1CCOc2cc(F)ccc21 [Example 65, 1-[(4R)-7-fluoro-3,4-dihydro-2H-chromen-4-yl]-3-[(2R)-2-hydroxy-2,3-dihydro-1H-inden-4-yl]urea]",73,0.27
"C[C@]1(CF)C[C@@H](NC(=O)Nc2cccc3c2C[C@H](O)C3)c2cccc(F)c2O1 [Example 66, 1-[(2R,4R)-8-fluoro-2-(fluoromethyl)-2-methyl-3,4-dihydro-2H-chromen-4-yl]-3-[(2R)-2-hydroxy-2,3-dihydro-1H-inden-4-yl]urea]",86,0.28
"CC1(CF)C[C@@H](NC(=O)Nc2cccc3c2C[C@H](O)C3)c2ccc(Cl)cc2O1 (stereo partly drawn) [Example 67, 1-[(4R)-7-chloro-2-(fluoromethyl)-2-methyl-3,4-dihydro-2H-chromen-4-yl]-3-[(2R)-2-hydroxy-2,3-dihydro-1H-inden-4-yl]urea]",72,0.017
"COCC1(COC)C[C@@H](NC(=O)Nc2cccc3c2C[C@H](O)C3)c2cc(F)ccc2O1 [Example 68, 1-[(4R)-6-fluoro-2,2-bis(methoxymethyl)-3,4-dihydro-2H-chromen-4-yl]-3-[(2R)-2-hydroxy-2,3-dihydro-1H-inden-4-yl]urea]",79,0.97
"O=C(Nc1cccc2c1C[C@H](O)C2)N[C@@H]1CC(CF)(CF)Oc2ccccc21 [Example 69, 1-[(4R)-2,2-bis(fluoromethyl)-3,4-dihydro-2H-chromen-4-yl]-3-[(2R)-2-hydroxy-2,3-dihydro-1H-inden-4-yl]urea]",91,0.4
"O=C(Nc1cccc2c1C[C@H](O)C2)N[C@@H]1CC(CF)(CF)Oc2c(F)cccc21 [Example 70, 1-[(4R)-8-fluoro-2,2-bis(fluoromethyl)-3,4-dihydro-2H-chromen-4-yl]-3-[(2R)-2-hydroxy-2,3-dihydro-1H-inden-4-yl]urea]",99,0.22
"CC1(C)C[C@@H](NC(=O)Nc2cccc3c2C[C@@H](O)C3)c2cccc(F)c2O1 [Example 71, 1-[(4R)-8-fluoro-2,2-dimethyl-3,4-dihydro-2H-chromen-4-yl]-3-[(2S)-2-hydroxy-2,3-dihydro-1H-inden-4-yl]urea]",52,0.52
"CC1(C)C[C@@H](NC(=O)Nc2cccc3c2C[C@@H](O)C3)c2ccc(OC(F)(F)F)cc2O1 [Example 72, 1-[(4R)-2,2-dimethyl-7-(trifluoromethoxy)-3,4-dihydro-2H-chromen-4-yl]-3-[(2S)-2-hydroxy-2,3-dihydro-1H-inden-4-yl]urea]",0,0.027
"O=C(Nc1cccc2c1C[C@@H](O)C2)N[C@@H]1CCOc2c(OC(F)(F)F)cccc21 [Example 73, 1-[(2S)-2-hydroxy-2,3-dihydro-1H-inden-4-yl]-3-[(4R)-8-(trifluoromethoxy)-3,4-dihydro-2H-chromen-4-yl]urea]",18,0.025
"O=C(Nc1cccc2c1C[C@@H](O)C2)N[C@@H]1CC(CF)(CF)Oc2cc(C(F)(F)F)ccc21 [Example 74, 1-[(4R)-2,2-bis(fluoromethyl)-7-(trifluoromethyl)-3,4-dihydro-2H-chromen-4-yl]-3-[(2S)-2-hydroxy-2,3-dihydro-1H-inden-4-yl]urea]",2,0.014
"O=C(Nc1cccc2c1C[C@@H](O)C2)N[C@@H]1CC(CF)(CF)Oc2c(Cl)cccc21 [Example 75, 1-[(4R)-8-chloro-2,2-bis(fluoromethyl)-3,4-dihydro-2H-chromen-4-yl]-3-[(2S)-2-hydroxy-2,3-dihydro-1H-inden-4-yl]urea]",40,0.12
"O=C(Nc1cccc2c1C[C@@H](O)C2)N[C@@H]1CC(CF)(CF)Oc2cc(OC(F)(F)F)ccc21 [Example 76, 1-[(4R)-2,2-bis(fluoromethyl)-7-(trifluoromethoxy)-3,4-dihydro-2H-chromen-4-yl]-3-[(2S)-2-hydroxy-2,3-dihydro-1H-inden-4-yl]urea]",1,0.032
"CC1(C)C[C@@H](NC(=O)Nc2cccc3c2C[C@@H](O)C3)c2ccc(C(F)(F)F)cc2O1 [Example 77, 1-[(4R)-2,2-dimethyl-7-(trifluoromethyl)-3,4-dihydro-2H-chromen-4-yl]-3-[(2S)-2-hydroxy-2,3-dihydro-1H-inden-4-yl]urea]",1,0.012
"O=C(Nc1cccc2c1C[C@@H](O)C2)N[C@@H]1CC(CF)(CF)Oc2ccc(F)cc21 [Example 78, 1-[(4R)-6-fluoro-2,2-bis(fluoromethyl)-3,4-dihydro-2H-chromen-4-yl]-3-[(2S)-2-hydroxy-2,3-dihydro-1H-inden-4-yl]urea]",12,1.4
"O=C(Nc1cccc2c1C[C@@H](O)C2)N[C@@H]1CC(CF)(CF)Oc2c(F)cc(F)cc21 [Example 79, 1-[(4R)-6,8-difluoro-2,2-bis(fluoromethyl)-3,4-dihydro-2H-chromen-4-yl]-3-[(2S)-2-hydroxy-2,3-dihydro-1H-inden-4-yl]urea]",15,0.71
"O=C(Nc1cccc2c1C[C@@H](O)C2)N[C@@H]1CC2(CCC2)Oc2ccc(F)cc21 [Example 80, 1-[(4R)-6-fluoro-3,4-dihydrospiro[chromene-2,1′-cyclobutan]-4-yl]-3-[(2S)-2-hydroxy-2,3-dihydro-1H-inden-4-yl]urea]",4,0.11
"O=C(Nc1cccc2c1C[C@@H](O)C2)N[C@@H]1CC(CF)(CF)Oc2c1ccc(Cl)c2F [Example 81, 1-[(4R)-7-chloro-8-fluoro-2,2-bis(fluoromethyl)-3,4-dihydro-2H-chromen-4-yl]-3-[(2S)-2-hydroxy-2,3-dihydro-1H-inden-4-yl]urea]",11,0.059
"CC1(C)C[C@@H](NC(=O)Nc2cccc3c2C[C@@H](O)C3)c2ccccc2O1 [Example 82, 1-[(4R)-2,2-dimethyl-3,4-dihydro-2H-chromen-4-yl]-3-[(2S)-2-hydroxy-2,3-dihydro-1H-inden-4-yl]urea]",56,0.51
"CC1(C)C[C@@H](NC(=O)Nc2cccc3c2C[C@@H](O)C3)c2cc(F)ccc2O1 [Example 83, 1-[(4R)-6-fluoro-2,2-dimethyl-3,4-dihydro-2H-chromen-4-yl]-3-[(2S)-2-hydroxy-2,3-dihydro-1H-inden-4-yl]urea]",27,0.79
"CN1CC[C@@H](NC(=O)Nc2cccc3c2C[C@@H](O)C3)c2ccc(C(F)(F)F)cc21 [Example 84, 1-[(2S)-2-hydroxy-2,3-dihydro-1H-inden-4-yl]-3-[(4R)-1-methyl-7-(trifluoromethyl)-1,2,3,4-tetrahydroquinolin-4-yl]urea]",13,0.08
"CC1(C)C[C@@H](NC(=O)Nc2cccc3c2C[C@@H](O)C3)c2ccc(Cl)cc2O1 [Example 85, 1-[(4R)-7-chloro-2,2-dimethyl-3,4-dihydro-2H-chromen-4-yl]-3-[(2S)-2-hydroxy-2,3-dihydro-1H-inden-4-yl]urea]",12,0.024
